# Experimental data reported in US20100003191A1, “AURONE DERIVATIVE-CONTAINING COMPOSITION FOR DIAGNOSIS” (NAGASAKI UNIVERSITY, priority 2006, published 2010).
# Legend:
# Aβ(1-42) aggregate = target: T1, Aβ(1-42) aggregate (Homo sapiens, UniProt P05067); experiment: In vitro binding experiment of [125I]-labeled aurone derivatives using Aβ(1-42) aggregates; conditions: [125I]-labeled compounds, Ab(1-42) aggregates, radioactivity remaining on filter, FIG. 4
# T1 construct: Amyloid (3 protein (Human, 1-42) [TFA form] was purchased from Peptide Institute, Inc); purchased Peptide Institute, Inc
# T1 sequence (P05067 672-713 limits assumed): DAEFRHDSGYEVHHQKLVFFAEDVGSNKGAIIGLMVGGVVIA
# Experimental: Aβ aggregates were prepared by dissolving in a buffer containing 10 mM sodium phosphate and 1 mM EDTA (pH 7.4) at a concentration of 0.5 mg/mL and incubating at 37° C. for 42 h. The binding experiment was performed using 12×75 mm borosilicate glass tubes. [^125I]IMPY used for comparison was prepared according to the method described previously (Zhuang Z P, Kung M P, Wilson A, Lee C W, Plossi K, Hou C, Holzman D M, Kung H F. Structure-activity relationship of imidazo[1,2-a]pyridines as ligands for detecting β-amyloid plaques in the brain. J. Med. Chem. 2003, 46(2): 237-43). 900 μL of 10% ethanol solution, 50 μL of [^125I]-labeled aurone derivative with various concentrations (in 10% aqueous ethanol) or 50 μL of [^125I]IMPY, and 50 μL (29 nM) of an Aβ(1-42) aggregate solution were mixed, and the mixture was allowed to stand at room temperature for 3 h. Aβ3 aggregate-bound aurone derivative and nonbound aurone derivative were separated with a Brandel M-24R cell harvester using Whatman GF/B filters. The radioactivities of substances remaining on the filter used for filtration were measured with a γ counter.
# FIGS. 4 and 5 show the results of experiments in which aurone derivatives were reacted in the presence and absence of Ab aggregates; the reaction mixture was filtered with a cell harvester; and the remaining radioactivity on the filter was measured. […] The intensity of the binding property increased in the following order: [^125I] Compound 7>[^125I] Compound 12=[^125I] IMPY>[^125I] Compound 14=[^125I] Compound 17>[^125I] Compound 20 (FIG. 4). The binding property to Ab aggregates of those compounds with —NH2, OMe- and OH group in their side chains are lower than the binding property of [^125] IMPY. On the other hand, those compounds with NHMe- and NMe2 group show equal or higher binding property to Ab aggregates compared to the binding property of [^125I] IMPY. […] Among all, the binding of Compound 7 to Ab aggregates was equal or more than the binding of [^125I] IMPY which is clinically tested at present. Therefore, it has become clear that this compound satisfies a critical requirement as an imaging probe for amyloid β.
# [1] = In vivo radioactivity distribution experiment of 125I-labeled aurone derivatives in normal mice (Example 2, Table 15); conditions: tail vein
# Experimental: Animals were decapitated at 2, 10, 30 or 60 min after the injection, and the blood was collected. Then, major organs were removed, and weights and radioactivities thereof were measured.
# In vivo radioactivity distribution experiments of ^125I-labeled aurone derivatives were performed using 5-week-old normal mice.
# [2] = In vivo radioactivity biodistribution experiment in normal mice (Example 1, Table 13); parameters: species or system ddY mice
# Experimental: ^125I-labeled compounds were diluted with 10% ethanol-containing physiological saline. […] After their blood was collected, organs were removed, and the weights and radioactivities thereof were measured.
# When any of the aurone derivatives was used, sufficient radioactivity to perform imaging of intracerebral amyloid migrated to the brain from the early stage of injection (1.7-4.6% ID/g). […] It was also shown that, in any of the aurone derivatives, in vivo radioactivity behavior is discharged mainly from the liver to the bile duct and the intestinal tract.
compound,measurement,setting,value
"CN(C)c1ccc(-c2cn3cc([125I])ccc3n2)cc1 [[^125I] IMPY, reference compound]",intensity of the binding property to Ab aggregates (order),Aβ(1-42) aggregate,[^125I] IMPY>[^125I] Compound 14
O=C1/C(=C/c2ccc(OCCO)cc2)Oc2ccc([125I])cc21 [[125I]26],"Radioactivity distribution, Blood, Mean",[1]; 2 min after injection,4.97 % ID/g
same,"Radioactivity distribution, Blood, Mean",[1]; 10 min after injection,3.88 % ID/g
same,"Radioactivity distribution, Blood, Mean",[1]; 30 min after injection,2.38 % ID/g
same,"Radioactivity distribution, Blood, Mean",[1]; 60 min after injection,1.24 % ID/g
same,"Radioactivity distribution, Brain, Mean",[1]; 2 min after injection,4.51 % ID/g
same,"Radioactivity distribution, Brain, Mean",[1]; 10 min after injection,1.49 % ID/g
same,"Radioactivity distribution, Brain, Mean",[1]; 30 min after injection,0.24 % ID/g
same,"Radioactivity distribution, Brain, Mean",[1]; 60 min after injection,0.09 % ID/g
O=C1/C(=C/c2ccc(OCCOCCO)cc2)Oc2ccc([125I])cc21 [[125I]27],"Radioactivity distribution, Blood, Mean",[1]; 2 min after injection,3.61 % ID/g
same,"Radioactivity distribution, Blood, Mean",[1]; 10 min after injection,5.18 % ID/g
same,"Radioactivity distribution, Blood, Mean",[1]; 30 min after injection,1.11 % ID/g
same,"Radioactivity distribution, Blood, Mean",[1]; 60 min after injection,0.68 % ID/g
same,"Radioactivity distribution, Brain, Mean",[1]; 2 min after injection,3.69 % ID/g
same,"Radioactivity distribution, Brain, Mean",[1]; 10 min after injection,1.53 % ID/g
same,"Radioactivity distribution, Brain, Mean",[1]; 30 min after injection,0.38 % ID/g
same,"Radioactivity distribution, Brain, Mean",[1]; 60 min after injection,0.16 % ID/g
COc1ccc(/C=C2\Oc3ccc([125I])cc3C2=O)cc1 [[^125I]17],"Biodistribution of radioactivity, Blood",[2]; 2 min after injection,3.16 (0.82) % injected dose per gram
same,"Biodistribution of radioactivity, Blood",[2]; 10 min after injection,1.51 (0.23) % injected dose per gram
same,"Biodistribution of radioactivity, Blood",[2]; 30 min after injection,0.95 (0.19) % injected dose per gram
same,"Biodistribution of radioactivity, Blood",[2]; 60 min after injection,0.70 (0.60) % injected dose per gram
same,"Biodistribution of radioactivity, Brain",[2]; 2 min after injection,1.69 (0.43) % injected dose per gram
same,"Biodistribution of radioactivity, Brain",[2]; 10 min after injection,0.54 (0.12) % injected dose per gram
same,"Biodistribution of radioactivity, Brain",[2]; 30 min after injection,0.11 (0.05) % injected dose per gram
same,"Biodistribution of radioactivity, Brain",[2]; 60 min after injection,0.03 (0.02) % injected dose per gram
same,"Biodistribution of radioactivity, Heart",[2]; 2 min after injection,3.84 (1.04) % injected dose per gram
same,"Biodistribution of radioactivity, Heart",[2]; 10 min after injection,1.06 (0.10) % injected dose per gram
same,"Biodistribution of radioactivity, Heart",[2]; 30 min after injection,0.37 (0.09) % injected dose per gram
same,"Biodistribution of radioactivity, Heart",[2]; 60 min after injection,0.25 (0.12) % injected dose per gram
same,"Biodistribution of radioactivity, Intestine",[2]; 2 min after injection,1.59 (0.51) % injected dose per gram
same,"Biodistribution of radioactivity, Intestine",[2]; 10 min after injection,4.70 (1.46) % injected dose per gram
same,"Biodistribution of radioactivity, Intestine",[2]; 30 min after injection,11.67 (3.56) % injected dose per gram
same,"Biodistribution of radioactivity, Intestine",[2]; 60 min after injection,9.02 (3.14) % injected dose per gram
same,"Biodistribution of radioactivity, Kidney",[2]; 2 min after injection,7.26 (2.18) % injected dose per gram
same,"Biodistribution of radioactivity, Kidney",[2]; 10 min after injection,7.00 (1.49) % injected dose per gram
same,"Biodistribution of radioactivity, Kidney",[2]; 30 min after injection,4.93 (1.52) % injected dose per gram
same,"Biodistribution of radioactivity, Kidney",[2]; 60 min after injection,2.43 (1.17) % injected dose per gram
same,"Biodistribution of radioactivity, Liver",[2]; 2 min after injection,6.87 (2.18) % injected dose per gram
same,"Biodistribution of radioactivity, Liver",[2]; 10 min after injection,5.16 (0.73) % injected dose per gram
same,"Biodistribution of radioactivity, Liver",[2]; 30 min after injection,2.76 (0.40) % injected dose per gram
same,"Biodistribution of radioactivity, Liver",[2]; 60 min after injection,1.86 (0.83) % injected dose per gram
same,"Biodistribution of radioactivity, Lung",[2]; 2 min after injection,6.71 (1.39) % injected dose per gram
same,"Biodistribution of radioactivity, Lung",[2]; 10 min after injection,1.76 (0.29) % injected dose per gram
same,"Biodistribution of radioactivity, Lung",[2]; 30 min after injection,0.97 (0.20) % injected dose per gram
same,"Biodistribution of radioactivity, Lung",[2]; 60 min after injection,0.75 (0.33) % injected dose per gram
same,"Biodistribution of radioactivity, Pancreas",[2]; 2 min after injection,2.83 (0.75) % injected dose per gram
same,"Biodistribution of radioactivity, Pancreas",[2]; 10 min after injection,0.77 (0.17) % injected dose per gram
same,"Biodistribution of radioactivity, Pancreas",[2]; 30 min after injection,0.29 (0.14) % injected dose per gram
same,"Biodistribution of radioactivity, Pancreas",[2]; 60 min after injection,0.16 (0.05) % injected dose per gram
same,"Biodistribution of radioactivity, Spleen",[2]; 2 min after injection,1.45 (0.56) % injected dose per gram
same,"Biodistribution of radioactivity, Spleen",[2]; 10 min after injection,0.74 (0.10) % injected dose per gram
same,"Biodistribution of radioactivity, Spleen",[2]; 30 min after injection,0.48 (0.10) % injected dose per gram
same,"Biodistribution of radioactivity, Spleen",[2]; 60 min after injection,0.43 (0.14) % injected dose per gram
same,"Biodistribution of radioactivity, Stomach",[2]; 2 min after injection,0.68 (0.33) % injected dose per organ
same,"Biodistribution of radioactivity, Stomach",[2]; 10 min after injection,1.06 (0.66) % injected dose per organ
same,"Biodistribution of radioactivity, Stomach",[2]; 30 min after injection,0.48 (0.09) % injected dose per organ
same,"Biodistribution of radioactivity, Stomach",[2]; 60 min after injection,0.96 (0.46) % injected dose per organ
O=C1/C(=C/c2ccc(OCCOCCOCCO)cc2)Oc2ccc([125I])cc21 [[125I]28],"Radioactivity distribution, Blood, Mean",[1]; 2 min after injection,4.75 % ID/g
same,"Radioactivity distribution, Blood, Mean",[1]; 10 min after injection,2.70 % ID/g
same,"Radioactivity distribution, Blood, Mean",[1]; 30 min after injection,1.13 % ID/g
same,"Radioactivity distribution, Blood, Mean",[1]; 60 min after injection,0.55 % ID/g
same,"Radioactivity distribution, Brain, Mean",[1]; 2 min after injection,2.81 % ID/g
same,"Radioactivity distribution, Brain, Mean",[1]; 10 min after injection,0.84 % ID/g
same,"Radioactivity distribution, Brain, Mean",[1]; 30 min after injection,0.18 % ID/g
same,"Radioactivity distribution, Brain, Mean",[1]; 60 min after injection,0.08 % ID/g
CN(C)c1ccc(/C=C2\Oc3ccc([125I])cc3C2=O)cc1 [[^125I]7],"Biodistribution of radioactivity, Blood",[2]; 2 min after injection,2.69 (0.29) % injected dose per gram
same,"Biodistribution of radioactivity, Blood",[2]; 10 min after injection,1.96 (0.34) % injected dose per gram
same,"Biodistribution of radioactivity, Blood",[2]; 30 min after injection,1.48 (0.15) % injected dose per gram
same,"Biodistribution of radioactivity, Blood",[2]; 60 min after injection,0.94 (0.25) % injected dose per gram
same,"Biodistribution of radioactivity, Brain",[2]; 2 min after injection,1.89 (0.38) % injected dose per gram
same,"Biodistribution of radioactivity, Brain",[2]; 10 min after injection,0.69 (0.21) % injected dose per gram
same,"Biodistribution of radioactivity, Brain",[2]; 30 min after injection,0.26 (0.04) % injected dose per gram
same,"Biodistribution of radioactivity, Brain",[2]; 60 min after injection,0.11 (0.03) % injected dose per gram
same,"Biodistribution of radioactivity, Heart",[2]; 2 min after injection,3.80 (0.66) % injected dose per gram
same,"Biodistribution of radioactivity, Heart",[2]; 10 min after injection,1.36 (0.66) % injected dose per gram
same,"Biodistribution of radioactivity, Heart",[2]; 30 min after injection,0.55 (0.29) % injected dose per gram
same,"Biodistribution of radioactivity, Heart",[2]; 60 min after injection,0.45 (0.11) % injected dose per gram
same,"Biodistribution of radioactivity, Intestine",[2]; 2 min after injection,1.65 (0.35) % injected dose per gram
same,"Biodistribution of radioactivity, Intestine",[2]; 10 min after injection,5.37 (1.10) % injected dose per gram
same,"Biodistribution of radioactivity, Intestine",[2]; 30 min after injection,9.50 (1.45) % injected dose per gram
same,"Biodistribution of radioactivity, Intestine",[2]; 60 min after injection,11.85 (2.70) % injected dose per gram
same,"Biodistribution of radioactivity, Kidney",[2]; 2 min after injection,7.84 (1.92) % injected dose per gram
same,"Biodistribution of radioactivity, Kidney",[2]; 10 min after injection,8.31 (3.19) % injected dose per gram
same,"Biodistribution of radioactivity, Kidney",[2]; 30 min after injection,10.37 (2.34) % injected dose per gram
same,"Biodistribution of radioactivity, Kidney",[2]; 60 min after injection,4.51 (1.43) % injected dose per gram
same,"Biodistribution of radioactivity, Liver",[2]; 2 min after injection,10.21 (1.87) % injected dose per gram
same,"Biodistribution of radioactivity, Liver",[2]; 10 min after injection,7.86 (2.25) % injected dose per gram
same,"Biodistribution of radioactivity, Liver",[2]; 30 min after injection,5.60 (0.59) % injected dose per gram
same,"Biodistribution of radioactivity, Liver",[2]; 60 min after injection,4.33 (0.76) % injected dose per gram
same,"Biodistribution of radioactivity, Lung",[2]; 2 min after injection,4.02 (0.83) % injected dose per gram
same,"Biodistribution of radioactivity, Lung",[2]; 10 min after injection,2.44 (0.54) % injected dose per gram
same,"Biodistribution of radioactivity, Lung",[2]; 30 min after injection,1.51 (0.41) % injected dose per gram
same,"Biodistribution of radioactivity, Lung",[2]; 60 min after injection,1.17 (0.26) % injected dose per gram
same,"Biodistribution of radioactivity, Pancreas",[2]; 2 min after injection,3.17 (0.68) % injected dose per gram
same,"Biodistribution of radioactivity, Pancreas",[2]; 10 min after injection,1.04 (0.25) % injected dose per gram
same,"Biodistribution of radioactivity, Pancreas",[2]; 30 min after injection,0.55 (0.21) % injected dose per gram
same,"Biodistribution of radioactivity, Pancreas",[2]; 60 min after injection,0.30 (0.06) % injected dose per gram
same,"Biodistribution of radioactivity, Spleen",[2]; 2 min after injection,1.76 (0.28) % injected dose per gram
same,"Biodistribution of radioactivity, Spleen",[2]; 10 min after injection,0.81 (0.54) % injected dose per gram
same,"Biodistribution of radioactivity, Spleen",[2]; 30 min after injection,0.51 (0.10) % injected dose per gram
same,"Biodistribution of radioactivity, Spleen",[2]; 60 min after injection,0.37 (0.11) % injected dose per gram
same,"Biodistribution of radioactivity, Stomach",[2]; 2 min after injection,1.21 (0.29) % injected dose per organ
same,"Biodistribution of radioactivity, Stomach",[2]; 10 min after injection,1.35 (1.25) % injected dose per organ
same,"Biodistribution of radioactivity, Stomach",[2]; 30 min after injection,1.87 (0.79) % injected dose per organ
same,"Biodistribution of radioactivity, Stomach",[2]; 60 min after injection,1.51 (1.04) % injected dose per organ
